Measurements reported in patent US20250034139A1, “AMINE COMPOUNDS HAVING ANTI-INFLAMMATORY, ANTIFUNGAL, ANTIPARASITIC, AND ANTICANCER ACTIVITY” (PHARMA CINQ, LLC, priority 2013, published 2025).
Like-named read-outs stand apart in the source and are kept apart here.

What was measured:
[1] = tested on: 4T1 mouse mammary breast cancer cells; experiment: Example O: syngeneic 4T1 breast cancer growth in Balb/C mice; type: in vivo; settings: 4T1 in female Balb/C mice; for Final Tumor Volume: 120 μmol/kg/day oral gavage, day 2 to day 30; for Δ BW % / Final Body Weight / Initial Body Weight: 120 μmol/kg/day oral; for Δ BW %: final vs initial body weight; for Final Body Weight: in g (unit assumed); for Initial Body Weight: initial (baseline)
How it was run: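 Syngeneic 4T1 tumors in immunocompetent Balb/C mice; compounds dosed orally by gavage in 1% HPMC, 120 μmol/kg/day, from day 2 to day 30. Tumor growth by caliper twice weekly plus tumor weight at necropsy; body weight monitored.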

[2] = tested on: imiquimod-induced dermatitis; settings: for Ear thickness, Mean ± SEM: imiquimod-treated mice; for PASI Score, Mean ± SEM: scale 0-12
Procedure: Topical imiquimod (IMQ), a toll-like receptor agonist, has been established as a model of Inflammatory skin diseases including psoriasis and atopic dermatitis. Dermal inflammatory changes and gene expression in mice treated with topical imiquimod mimic human psoriasis and dermatitis (van der Fits et al., 2009; Swindell et al., 2011). The effect of a set of compounds of the invention were tested in a mouse model of imiquimod-induced dermatitis, with topical tacrolimus and dexamethasone as comparators for assessing safety and efficacy relative to standard agents used to treat dermatitis in humans.
Commercial 0.1% tacrolimus ointment (ProTopic™[…]) was also used as an active comparator. Petrolatum containing 10% ethanol was used as a control treatment.
Female Balb/C mice (8 weeks old) were randomized and divided into groups of 5 animals each. Polyethylene collars were affixed to the mice to prevent them from easily scratching their ears. 5% imiquimod was applied to both ears of each mouse (20 microliters per ear) daily for 5 days, and then every other day for the full duration of the study. […] On day 7 after initiation of imiquimod, treatment with topical agents was started. Both ears of each mouse were treated with test ointments, with one compound per mouse.
Ear thickness and PASI assessments (Psoriasis Area and Severity Index, a standard psoriasis scoring system) were recorded twice per week throughout the study. The PASI score comprises the sum of evaluations of swelling, erythema and scaling on scales from 0 to 4; the maximum PASI score is 12, and the minimum, in unaffected skin, is 0).

[3] = tested on: C. neoformans (serotype A) phagocytosed by THP-1-derived macrophages; experiment: Example M: phagocytosed Cryptococcus neoformans antifungal screen in THP-1-derived macrophages; type: cell-based; settings: for inhibition of fungal growth after phagocytosis and lysis, in words: 0.5, 1 or 2 μM; for IC50: after macrophage phagocytosis and lysis
Procedure: Two concentrations of macrophages (1×10^5 and 2×10^5/well) and a high concentration of C. neoformans (4×10^6/well) (MOI values of 40 and 20 respectively) were tested in this experiment.
THP-1 cells were adjusted to 5×10^5/ml or 1×10^6/ml in cRPMI+PMA
200 μl was transferred to a flat-bottomed 96-well dish (1×10^5 and 2×10^5/well) (48 hrs at 37 C) Media was removed and fresh cRPMI+PMA added (further 24 hrs at 37 C)
C. neoformans cells in DPBS were opsonized with human serum (60 mins at 30 C)
The opsonized yeast was washed (DPBS) and resuspended at 1×10^7/ml or 2×10^7/ml in cRPMI. 100 μl added to macrophage plate (1×10^6 and 2×10^6/well) (4 hrs at 37 C) washed ×4 with DPBS 100 μl of cRPMI was added to each well (18 hrs at 37 C) Compound AC was added to some wells. Media was removed, no wash, 25 μl 0.05% Triton X-100 added to lyse cells (3 mins RT rocking) 125 μl YPD broth was added and the plate incubated (24 hrs at 30 C then 24 hrs at 37 C) C. neoformans growth was determined on a Spectrophotometer (600 nm) after 24 and 48 hours
THP-1 cells (p15) grown in cRPMI [RPMI (Lonza 12-115F) plus 10% ΔFBS (Lonza DE14-701F)] were counted on a hemacytometer. Cells were spun at 1,800 rpm, RT for 5 mins, supernatant aspirated, pellet disturbed then adjusted to 5.0×10^5/ml and 1.0×10^6/ml in cRPMI supplemented with 0.2 μg/ml phorbol 12-myristate 13-acetate (PMA) (1 mg/ml in DMSO Sigma P8139). 200 μl aliquots of each cell concentration were transferred to […] (half a plate) of a flat-bottomed 96-well dish (1×10^5 and 2×10^5/well) and placed in a 37 C incubator for 48 hours, media was then removed and 200 μl of fresh cRPMI+PMA added. The plate was incubated for an additional 24 hours at 37 C then processed for yeast uptake.
In parallel to macrophage preparation, C. neoformans cells were grown from a single colony in 20 ml YPD broth at 30 C overnight. Absorbance of 1:10 dilution of the overnight (ON) culture gave 0.89 OD at 600 nm. Estimated concentration of this stock was 4×10^8 cells/ml (2×10^8 cells/ml gave an OD 600 nm of 0.426 in an earlier study Cryptococcus macrophage development plate 3 ML113012). The cells were washed with DPBS once and resuspended in 2 ml DPBS. 230 μl of this stock (˜60×10^7 cells) was brought up to 500 μl with DPBS in an Eppendorf tube. For opsonization, 500 μl of human serum (SIGMA S7023) was added and the tube incubated at 30 C for 60 mins with orbital shaking. […] A 1:200 dilution of cells was counted (4.25×10^6/ml), equivalent to 8.5×10^8/ml for the 1× stock. 470 μl of the 1× stock was brought up to 10 ml with cRPMI for a final concentration of 4×10^7/ml.
Media was aspirated from the prepared macrophage plate and 100 μl of the opsonized fungal cell suspension added to the wells. Media without yeast was added to triplicate wells for each macrophage concentration to provide background readings. Three empty wells (no macrophages) were seeded with fungus to serve as the wash control. The plates were then incubated at 37 C for 4 hours then washed 4 times with DPBS (plates were shakes briefly after addition of DPBS to increase wash efficiency). 144 μl of cRPMI was added to each well and 6 μl of 12.5 μM, 25 μM and 50 μM stocks of compounds AM, BM, AH, and AC added in triplicate for final concentrations of 0.5 μM, 1 μM or 2 μM. The plate was incubated at 37 C, 5% CO2 for 18 hours. Media was removed, 25 μl of 0.05% Triton X-100 (SIGMA T-9284) in DPBS was added to each well and the plate rocked at RT for 3 min, to lyse the cells. 125 μl YPD broth (KD Medical YLF-3260) was then added to each well and the plate placed in a 30 C incubator. C. neoformans cell growth was determined by measuring absorbance at 600 nm on a Spectrophotometer (Spectra Max Plus using program SoftMax Pro) after […].

[4] = topical ointment 0.06% active drug (dexamethasone 0.03%, tacrolimus 0.1%)
[5] = Cryptococcus neoformans, read-out: IC50 value (μM) for inhibition of fungal growth, 1 × 10^5 macrophages
[6] = Cryptococcus neoformans, read-out: IC50 value (μM) for inhibition of fungal growth, 2 × 10^5 macrophages

SMILES | Final Tumor Volume [1] [mm^3] | Δ BW % [1] [%] | Final Body Weight [1] | Initial Body Weight [1] [g] | Ear thickness, Mean ± SEM [2, 4] | Body Weight (mean ± SEM), Final ([2]; mouse, in vivo) [g] | Body Weight (mean ± SEM), Initial ([2]; mouse, in vivo) [g] | D BW (g) ([2]; mouse, in vivo) | PASI Score, Mean ± SEM [2, 4] | Ear thickness, Mean ± SEM ([2]; topical ointment AF 0.6%) | D BW ([2]; mouse, in vivo) [g] | Hair growth on the imiquimod-affected head area, in words ([2]; mouse, in vivo) | PASI Score, Mean ± SEM ([2]; topical ointment AF 0.6%) | inhibition of fungal growth after phagocytosis and lysis, in words [3] | IC50 [3, 5] [µM] | IC50 [3, 6] [µM] | inhibition at 2 µM ([3]; Cryptococcus neoformans, Macrophage, at 2 μM, after phagocytosis, read-out: inhibition of the fungal growth) [%]
CCCCCCOc1ccc(CNc2ccnc3ccccc23)cc1 [AA, N-[4-(Hexyloxy)benzyl]quinolin-4-amine] | 563 ± 175 | −5.1 | 20.3 ± 1.3 | 21.4 ± 1.0 | – | – | – | – | – | – | – | – | – | – | – | – | –
COc1ccc(OCCCCCCCCNc2ncnc3ccccc23)cc1 [AE, N-[8-(4-Methoxyphenoxy)octyl]quinazolin-4-amine] | – | – | – | – | 0.846 ± 0.023 | 21.3 ± 0.4 | 20.9 ± 0.5 | +0.4 g | 11.550 ± 0.281 | – | – | – | – | – | – | – | –
c1ccc(Oc2cccc(CNc3ccnc4ccccc34)c2)cc1 [AF, N-(3-Phenoxybenzyl)quinolin-4-amine] | – | – | – | – | 0.355 ± 0.005 | – | – | +0.4 g | 3.575 ± 0.158 | 0.390 ± 0.008 | -0.4 | hair growth was maintained | 4.875 ± 0.155 | – | – | – | –
CCCCOCCCCCCCCCCNc1ccnc2ccccc12 [AM, N-(10-Butoxydecyl)quinolin-4-amine] | – | – | – | – | – | – | – | – | – | – | – | – | – | clear dose dependent inhibition of fungal growth after phagocytosis and lysis | 1.13 | 0.85 | –
c1ccc(Oc2cccc(CNc3ncnc4ccccc34)c2)cc1 [BM, N-(3-Phenoxybenzyl)quinazolin-4-amine] | – | – | – | – | 0.577 ± 0.019 | 20.9 ± 0.6 | 20.8 ± 0.7 | +0.1 g | 9.250 ± 0.183 | – | – | – | – | clear dose dependent inhibition of fungal growth after phagocytosis and lysis | 1.8 | 1.31 | –
CCCCCCOc1cccc(CNc2ccnc3ccccc23)c1 [Compound AC, N-[3-(Hexyloxy)benzyl]quinolin-4-amine] | 723 ± 185 | −8.4 | 19.7 ± 1.1 | 21.5 ± 1.0 | 0.501 ± 0.030 | 21.3 ± 0.6 | 21.1 ± 0.7 | +0.2 g | 7.150 ± 0.221 | – | – | – | – | clear dose dependent inhibition of fungal growth after phagocytosis and lysis | 1.29 | 1.35 | –
CCCCCCCCCCNc1ncnc2ccccc12 [Compound AH, N-(Decyl)quinazolin-4-amine] | – | – | – | – | – | – | – | – | – | – | – | – | – | clear dose dependent inhibition of fungal growth after phagocytosis and lysis | 0.29 | 0.25 | ~100
